From ChEMBL document CHEMBL1201862, “PubChem BioAssay data set” (2004)
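Test compounds were applied to cells in 96-well plates for 48 hours at 5 doses. GI50: concentration for 50% inhibition of growth.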 The source made the active and inactive calls. Rule as the data show it: active = GI50 up to about 1.1 µM and inactive = higher.

Experiments:
Assay in all cases: inhibition of tumour cell growth, NCI panel, 48 h
ACHN = tested on: ACHN
HL-60 = tested on: HL-60
MDA-MB-435 = tested on: MDA-MB-435
SNB-19 = tested on: SNB-19
EKVX = tested on: EKVX
DU-145 = tested on: DU-145
NCI-H226 = tested on: NCI-H226
OVCAR-4 = tested on: OVCAR-4
SK-MEL-28 = tested on: SK-MEL-28
Malme-3M = tested on: Malme-3M
SR = tested on: SR
LOX IMVI = tested on: LOX IMVI
OVCAR-3 = tested on: OVCAR-3
UO-31 = tested on: UO-31
COLO 205 = tested on: COLO 205
HT-29 = tested on: HT-29
NCI/ADR-RES = tested on: NCI/ADR-RES
NCI-H23 = tested on: NCI-H23
HCC 2998 = tested on: HCC 2998

Measured: GI50

c1ccc(C[N+]23C(CC[C@H]2c2ccccc2)CC[C@H]3c2ccccc2)cc1 (stereo partly drawn)
inactive: ACHN > 100 µM | HL-60 11.2 µM | MDA-MB-435 18.7 µM | SNB-19 29.5 µM | EKVX 24 µM | DU-145 32.9 µM | NCI-H226 22.1 µM | OVCAR-4 31 µM | SK-MEL-28 34.6 µM | Malme-3M 18.2 µM | SR 21.4 µM | LOX IMVI 29.2 µM | OVCAR-3 14.3 µM | UO-31 > 100 µM | COLO 205 11.2 µM | HT-29 17.9 µM

CCc1n[nH]c(=O)n1/N=C(\C)c1ccccc1
inactive: ACHN > 100 µM | HL-60 > 100 µM | MDA-MB-435 > 100 µM | NCI/ADR-RES > 100 µM | SNB-19 > 100 µM | EKVX 68.5 µM | DU-145 > 100 µM | NCI-H226 > 100 µM | OVCAR-4 > 100 µM | SK-MEL-28 > 100 µM | Malme-3M > 100 µM | LOX IMVI > 100 µM | OVCAR-3 > 100 µM | UO-31 > 100 µM | COLO 205 > 100 µM | NCI-H23 > 100 µM | HT-29 > 100 µM

C/C=C\C(CC(=O)NCCc1cn(C(=O)OCc2ccccc2)c2ccccc12)CC(=O)OC (stereo not drawn)
inactive: ACHN > 100 µM | MDA-MB-435 42.3 µM | NCI/ADR-RES 41.8 µM | SNB-19 63.1 µM | EKVX 45.2 µM | DU-145 > 100 µM | OVCAR-4 35.9 µM | SK-MEL-28 > 100 µM | Malme-3M > 100 µM | OVCAR-3 69.7 µM | UO-31 50.8 µM | COLO 205 40.6 µM | NCI-H23 89.5 µM | HCC 2998 > 100 µM | HT-29 48.5 µM

O=C(O)c1nc2cc(C(F)(F)F)ccc2nc1Nc1ccc(Cl)c(Cl)c1
inactive: ACHN 11.6 µM | MDA-MB-435 5.12 µM | NCI/ADR-RES 10.5 µM | SNB-19 8.95 µM | EKVX 17.9 µM | NCI-H226 15.8 µM | OVCAR-4 21.2 µM | Malme-3M 20.1 µM | SR 21.6 µM | LOX IMVI 17.3 µM | OVCAR-3 13.5 µM | UO-31 14.4 µM | COLO 205 16.6 µM | NCI-H23 14.3 µM | HT-29 15.3 µM

O=C([O-])C[n+]1ccccc1.c1ccncc1
inactive: ACHN > 100 µM | HL-60 97.1 µM | MDA-MB-435 > 100 µM | NCI/ADR-RES > 100 µM | SNB-19 > 100 µM | EKVX > 100 µM | DU-145 > 100 µM | NCI-H226 > 100 µM | OVCAR-4 > 100 µM | SK-MEL-28 > 100 µM | Malme-3M > 100 µM | LOX IMVI > 100 µM | OVCAR-3 > 100 µM | UO-31 > 100 µM | COLO 205 > 100 µM | NCI-H23 > 100 µM | HT-29 > 100 µM

O=C(O)[C@H]1CCCN1CP(=O)(O)CN1CCC[C@@H]1C(=O)O
inactive: ACHN > 100 µM | HL-60 > 100 µM | MDA-MB-435 > 100 µM | NCI/ADR-RES > 100 µM | SNB-19 > 100 µM | EKVX > 100 µM | DU-145 > 100 µM | OVCAR-4 > 100 µM | SK-MEL-28 > 100 µM | Malme-3M > 100 µM | LOX IMVI > 100 µM | OVCAR-3 > 100 µM | UO-31 > 100 µM | COLO 205 > 100 µM | NCI-H23 > 100 µM | HT-29 > 100 µM

Cc1ccc(N2C(=O)C3c4[nH]c5ccc(C)cc5c4C4CCC(C(C)(C)C)CC4C3C2=O)cc1 (stereo not drawn)
inactive: HL-60 17.3 µM | MDA-MB-435 17.7 µM | NCI/ADR-RES 19.5 µM | SNB-19 26.5 µM | EKVX 10.8 µM | DU-145 17.8 µM | NCI-H226 21.6 µM | OVCAR-4 6.27 µM | SK-MEL-28 22.4 µM | Malme-3M 14 µM | LOX IMVI 15 µM | OVCAR-3 12.1 µM | UO-31 37.9 µM | COLO 205 15.2 µM | NCI-H23 16.6 µM | HT-29 15.6 µM

CCCCCCCCCC(=O)NC(CCC(=O)N(CCNC(=O)c1nc(-c2ccccc2)oc1-c1ccccc1)Cc1ccccc1)C(=O)O (stereo not drawn)
inactive: ACHN 18.8 µM | MDA-MB-435 18.7 µM | NCI/ADR-RES 16.6 µM | SNB-19 17.4 µM | EKVX 16.6 µM | DU-145 20.3 µM | NCI-H226 23.8 µM | OVCAR-4 20.5 µM | SK-MEL-28 22.3 µM | Malme-3M 16.4 µM | LOX IMVI 18.6 µM | OVCAR-3 16.3 µM | UO-31 15.2 µM | COLO 205 19.6 µM | NCI-H23 17.9 µM | HT-29 18 µM

COc1ccc([C@H]2C=C(c3cc(F)c(Cl)cc3Cl)N=c3s/c(=C\c4ccc(-c5ccc(Cl)cc5Cl)o4)c(=O)n32)cc1
inactive: ACHN > 100 µM | MDA-MB-435 30.5 µM | NCI/ADR-RES 44.5 µM | SNB-19 31.9 µM | DU-145 71 µM | NCI-H226 24.6 µM | OVCAR-4 37.3 µM | SK-MEL-28 > 100 µM | Malme-3M 99.1 µM | LOX IMVI 38 µM | UO-31 32.9 µM | COLO 205 80 µM | NCI-H23 38.9 µM | HCC 2998 20.1 µM | HT-29 37.2 µM

CC1=CCC[C@@](C)(O)[C@@H]2C[C@H]3C(CSc4ccccc4)C(=O)O[C@H]3[C@@H](O2)[C@H](C)CCC1 (stereo partly drawn)
inactive: ACHN 12.9 µM | HL-60 > 100 µM | MDA-MB-435 20.3 µM | SNB-19 13.2 µM | EKVX 18.6 µM | DU-145 25.6 µM | OVCAR-4 19.8 µM | SK-MEL-28 21 µM | Malme-3M 13.7 µM | SR 6.35 µM | LOX IMVI 15.9 µM | OVCAR-3 13 µM | UO-31 11.8 µM | COLO 205 18.1 µM | NCI-H23 16.8 µM | HCC 2998 15.8 µM

Cc1cccc(/N=N/c2ccc(/N=N/c3c(O)ccc4ccccc34)cc2C)c1
inactive: ACHN 49.3 µM | HL-60 33.5 µM | MDA-MB-435 > 100 µM | NCI/ADR-RES 13.4 µM | SNB-19 38.2 µM | EKVX 84.7 µM | NCI-H226 > 100 µM | OVCAR-4 > 100 µM | SK-MEL-28 > 100 µM | Malme-3M 2 µM | SR 21.4 µM | OVCAR-3 > 100 µM | UO-31 > 100 µM | COLO 205 > 100 µM | NCI-H23 > 100 µM | HCC 2998 > 100 µM | HT-29 > 100 µM

COc1ccc2[nH]c3c(c2c1)CCn1c-3nc2ccccc2c1=O
inactive: ACHN > 25 µM | HL-60 > 25 µM | MDA-MB-435 > 25 µM | NCI/ADR-RES > 25 µM | SNB-19 > 25 µM | EKVX > 25 µM | OVCAR-4 > 25 µM | SK-MEL-28 > 25 µM | SR > 25 µM | UO-31 > 25 µM | COLO 205 > 25 µM | HCC 2998 > 25 µM
